In the supplement of paper PMC10331698:
± gives the standard deviation of the averaged measurements.

What was measured:
Assay in all cases: level (log10 ratio to DMSO vehicle control); higher = higher biomarker level / cell amount than vehicle control
Settings in all cases: in DMSO
[1] = compound: NC(=O)C(F)(F)C(F)(F)C(F)(F)F [Heptafluorobutyramide]
Method: (§1)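 BioMAP Diversity Plus panel of 12 human primary cell co-culture systems (3C, 4H, LPS, SAg, BT, BF4T, BE3C, CASM3C, HDF3CGF, KF3CT, MyoF, Mphg). Compounds were added 1 h before stimulation and left for 24 h (MyoF 48 h; BT 72 h for soluble read-outs or 6 d for IgG). Biomarkers were read by ELISA, cytotoxicity by SRB, PBMC viability and proliferation by Alamar Blue. Each well value was divided by the mean of 8 DMSO control wells on the same plate and log10 transformed; duplicate blinded samples were tested at 4 concentrations.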

[2] = compound: NC(=O)C(F)(F)C(F)(F)F [Pentafluoropropionamide]
Method: as §1

[3] = compound: C=CC(=O)OCC(F)(F)C(F)(F)C(F)(F)C(F)(F)C(F)(F)C(F)(F)C(F)(F)F [1H,1H-Perfluorooctyl acrylate]
Method: as §1

[4] = compound: COC(=O)CCC(F)(F)C(F)(F)C(F)(F)C(F)(F)F [Methyl 2H,2H,3H,3H-perfluoroheptanoate]
Method: as §1

[5] = compound: O=C(O)C(F)(F)C(F)(F)C(F)(F)OC(F)(C(F)(F)F)C(F)(F)F [Perfluoro-4-isopropoxybutanoic acid]
Method: as §1

[6] = compound: FC(F)(F)C(F)(C(F)(F)F)C(F)(F)C(F)(F)CC1CO1 [3-(Perfluoro-3-methylbutyl)-1,2-propenoxide]
Method: as §1

[7] = compound: OCCC(F)(F)C(F)(F)C(F)(F)C(F)(F)C(F)(F)C(F)(F)F [6:2 Fluorotelomer alcohol]
Method: as §1

Test System	level (log10) ([1]; 6700 nM)	level (log10) ([1]; 20000 nM)	level (log10) ([1]; 60000 nM)	level (log10) ([2]; 6700 nM)	level (log10) ([2]; 20000 nM)	level (log10) ([2]; 60000 nM)	level (log10) ([3]; 6700 nM)	level (log10) ([3]; 20000 nM)	level (log10) ([3]; 60000 nM)	level (log10) ([4]; 6700 nM)	level (log10) ([4]; 20000 nM)	level (log10) ([4]; 60000 nM)	level (log10) ([5]; 6700 nM)	level (log10) ([5]; 20000 nM)	level (log10) ([5]; 60000 nM)	level (log10) ([6]; 6700 nM)	level (log10) ([6]; 20000 nM)	level (log10) ([7]; 6700 nM)	level (log10) ([7]; 20000 nM)
3C:CCL2/MCP-1	-0.011 ± 0.0057	-0.0125 ± 0.0064	0.0065 ± 0.03	0.006 ± 0.018	-0.007 ± 0.0099	0.0275 ± 0.00071	-0.0085 ± 0.00071	-0.009 ± 0.023	0.017 ± 0.028	0.011 ± 0.0085	0.007 ± 0.013	0.0285 ± 0.028	-0.005 ± 0.016	0.001 ± 0.0071	0.0375 ± 0.018	-0.0115 ± 0.0064	-0.0125 ± 0.025	0.008 ± 0.014	-0.008 ± 0.0071
3C:CD54/ICAM-1	-0.023 ± 0.02	-0.008 ± 0.0014	-0.019 ± 0.016	0.0035 ± 0.0035	-0.0105 ± 0.016	0.008 ± 0.014	0.002 ± 0.0014	0 ± 0.0099	0 ± 0.018	-0.0175 ± 0.0078	-0.017	0.002 ± 0.017	0.0075 ± 0.016	-0.0085 ± 0.022	0.0285 ± 0.0078	-0.0055 ± 0.00071	-0.0025 ± 0.0064	-0.006 ± 0.013	-0.0185 ± 0.044
3C:CD62E/E-Selectin	-0.0085 ± 0.03	-0.017 ± 0.038	-0.0385 ± 0.0064	-0.0075 ± 0.0078	-0.005 ± 0.011	0.005 ± 0.018	-0.001 ± 0.0071	-0.006 ± 0.0099	0.0035 ± 0.013	-0.037 ± 0.0071	-0.012 ± 0.013	0.0005 ± 0.022	-0.007 ± 0.023	-0.015 ± 0.03	0.023 ± 0.0099	-0.0215 ± 0.0078	-0.0115 ± 0.013	-0.0075 ± 0.043	-0.024 ± 0.042
3C:CD106/VCAM-1	-0.0085 ± 0.0021	-0.01 ± 0.014	-0.025	-0.0215 ± 0.013	-0.009 ± 0.027	-0.0105 ± 0.005	-0.0215 ± 0.023	-0.0245 ± 0.021	-0.012 ± 0.0028	-0.0175 ± 0.028	-0.0125 ± 0.013	0.0065 ± 0.005	0.0135 ± 0.00071	0.006 ± 0.011	0.015 ± 0.02	-0.0275 ± 0.019	-0.0005 ± 0.013	0.0025 ± 0.0092	-0.0075 ± 0.0021
3C:CD141/Thrombomodulin	-0.004 ± 0.083	-0.022 ± 0.099	-0.047 ± 0.11	-0.0355 ± 0.032	-0.0165 ± 0.005	-0.027 ± 0.018	-0.027 ± 0.017	-0.023 ± 0.018	-0.0455 ± 0.021	-0.0355 ± 0.032	-0.017 ± 0.0042	-0.0225 ± 0.013	-0.019 ± 0.0014	-0.0365 ± 0.019	-0.015 ± 0.0028	-0.001 ± 0.017	-0.0245 ± 0.018	-0.019 ± 0.037	-0.0445 ± 0.021
3C:CD142/Tissue Factor	-0.002 ± 0.064	-0.007 ± 0.082	-0.0235 ± 0.1	-0.0305 ± 0.032	-0.0575 ± 0.019	-0.0205 ± 0.015	0.001 ± 0.0057	0 ± 0.0014	-0.0165 ± 0.0078	-0.0115 ± 0.066	-0.038 ± 0.021	-0.0005 ± 0.026	-0.015 ± 0.0085	-0.0185 ± 0.0035	-0.002 ± 0.0057	-0.0095 ± 0.044	-0.0125 ± 0.047	-0.003 ± 0.044	-0.014 ± 0.025
BE3C:Keratin 8/18	-0.007 ± 0.0071	-0.028 ± 0.0071	-0.0265 ± 0.0078	-0.0185 ± 0.0021	-0.0185 ± 0.005	-0.0185 ± 0.018	-0.011 ± 0.023	-0.0145 ± 0.029	-0.0045 ± 0.022	-0.0225 ± 0.005	0.0015 ± 0.015	-0.0165 ± 0.018	-0.0135 ± 0.0021	-0.024 ± 0.0028	0.009 ± 0.013	0.0005 ± 0.03	0.001 ± 0.03	-0.0095 ± 0.0064	-0.0115 ± 0.00071
BE3C:MMP-1	0.007 ± 0.0057	0.0045 ± 0.018	0.0195 ± 0.073	0.0275 ± 0.015	0.0185 ± 0.028	0.0665 ± 0.037	-0.018 ± 0.016	-0.0215 ± 0.0035	0.006 ± 0.0014	0.0035 ± 0.052	0.004 ± 0.045	0.03 ± 0.1	-0.002 ± 0.017	0.004 ± 0.025	0.0605 ± 0.054	0.0085 ± 0.076	0.0445 ± 0.1	-0.0245 ± 0.036	-0.0195 ± 0.028
BE3C:MMP-9	-0.0135 ± 0.021	0.005 ± 0.0071	0.0005 ± 0.012	-0.002 ± 0.011	-0.02 ± 0.031	0.004 ± 0.017	-0.0135 ± 0.025	-0.013 ± 0.024	-0.022 ± 0.018	-0.001 ± 0.011	-0.0065 ± 0.023	-0.0155 ± 0.013	0.0235 ± 0.033	0.0185 ± 0.044	0.0645 ± 0.067	-0.005 ± 0.0071	-0.018 ± 0.011	0.0055 ± 0.0078	-0.0215 ± 0.022
BE3C:PAI-I	-0.0065 ± 0.00071	-0.0025 ± 0.00071	-0.0115 ± 0.015	0.002 ± 0.0057	-0.009 ± 0.03	-0.016 ± 0.0028	-0.0295 ± 0.018	-0.0285 ± 0.028	-0.028 ± 0.03	-0.0065 ± 0.025	-0.006 ± 0.044	-0.0055 ± 0.005	-0.0155 ± 0.028	0.002 ± 0.017	0.0115 ± 0.032	-0.0175 ± 0.0035	-0.0075 ± 0.013	-0.0205 ± 0.03	-0.025 ± 0.048
BE3C:SRB	-0.0025 ± 0.0035	0.0005 ± 0.00071	-0.002 ± 0.0042	-0.0015 ± 0.0021	-0.001	-0.0015 ± 0.005	0.0005 ± 0.0078	-0.003 ± 0.0085	0.0085 ± 0.015	-0.004 ± 0.0028	-0.0015 ± 0.0021	0.002	-0.0035 ± 0.00071	-0.0095 ± 0.00071	0.001 ± 0.0085	-0.0005 ± 0.00071	0.0015 ± 0.0021	-0.0025 ± 0.0021	-0.0045 ± 0.0021
BE3C:tPA	-0.027 ± 0.017	-0.0055 ± 0.0021	-0.0115 ± 0.028	-0.0055 ± 0.012	-0.001 ± 0.018	0.003 ± 0.02	0.005 ± 0.0028	0.0125 ± 0.00071	0.0605 ± 0.022	-0.006 ± 0.02	-0.016 ± 0.014	0.0005 ± 0.0078	-0.0285 ± 0.018	-0.0385 ± 0.0035	-0.0025 ± 0.057	-0.0215 ± 0.04	-0.037 ± 0.033	-0.0135 ± 0.018	-0.004 ± 0.0057
BE3C:uPA	-0.011 ± 0.02	-0.017 ± 0.024	-0.0145 ± 0.019	-0.0305 ± 0.028	-0.0265 ± 0.015	-0.011 ± 0.014	-0.003 ± 0.0099	0.005 ± 0.0099	0.0055 ± 0.00071	-0.013 ± 0.042	-0.0155 ± 0.018	-0.0155 ± 0.012	-0.001 ± 0.0042	0.0025 ± 0.012	0.0185 ± 0.0064	0.0005 ± 0.018	0.004 ± 0.021	-0.004	-0.012 ± 0.0028
